Data set [1] concerns the target T1, Muscarinic acetylcholine receptor M4 (Homo sapiens) (UniProt P08173).
T1 sequence (whole entry): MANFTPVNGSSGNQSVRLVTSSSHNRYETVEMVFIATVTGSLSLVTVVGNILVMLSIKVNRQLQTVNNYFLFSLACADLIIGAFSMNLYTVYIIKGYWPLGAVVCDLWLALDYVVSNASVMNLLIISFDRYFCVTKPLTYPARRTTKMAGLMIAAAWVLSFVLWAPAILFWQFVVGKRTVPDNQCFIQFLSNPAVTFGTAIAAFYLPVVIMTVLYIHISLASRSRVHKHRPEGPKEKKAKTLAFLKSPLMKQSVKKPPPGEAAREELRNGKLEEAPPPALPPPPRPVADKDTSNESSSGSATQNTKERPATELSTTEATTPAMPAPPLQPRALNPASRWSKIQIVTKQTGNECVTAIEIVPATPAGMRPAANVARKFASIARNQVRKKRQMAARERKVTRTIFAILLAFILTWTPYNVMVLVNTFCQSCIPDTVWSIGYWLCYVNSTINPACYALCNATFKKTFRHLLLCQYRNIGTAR
The data set is described as follows: Antagonist activity at human recombinant muscarinic M4 receptor expressed in CHO cells co-transfected with Gqi5 assessed as acetylcholine-induced response in presence of EC80 acetylcholine by calcium mobilization assay relative to untreated control. In kind it is functional, cell-based. More on the design: scale not given: the % may be the effect or the level left. On the technique in general: Calcium assays in cells follow changes in intracellular calcium, usually with a dye or a luminescent sensor.

Data set [2] concerns the target T2, Muscarinic acetylcholine receptor M4 (Homo sapiens, UniProt P08173).
T2 sequence (P08173 whole entry): T1 sequence (whole entry)
The data set is described as follows: Antagonist activity at human recombinant muscarinic M4 receptor expressed in CHO cells co-transfected with Gqi5 in presence of EC80 acetylcholine by calcium mobilization assay. Format: functional, cell-based.

Data set [3] deals with Plasma. The data set is described as follows: Protein binding in human plasma. In kind it is ADME, cell-free.
For data set [4], the system named is Plasma. The data set is described as follows: Protein binding in rat plasma. In kind it is ADME, cell-free.
For data set [5], the target named is T2, Muscarinic acetylcholine receptor M4. Put plainly: Antagonist activity at human muscarinic M4 receptor.

Consider `C[C@H]1CCCN1c1ccc(N2CCN(S(=O)(=O)c3ccccc3Cl)CC2)nn1`, for which the Activity in data set [1] worked out at 9%. Besides, in data set [2] (read-out: IC50), the IC50 worked out at 2.9 µM.

For `C[C@H]1CCCCN1c1ccc(N2CCN(S(=O)(=O)c3ccc(Cl)cc3)CC2)nn1`, the Activity in data set [1] is 30%. Further, the PPB entry in the data set with Plasma [3] and with Plasma [4] was “Active” in each case. The IC50 in data set [2] (read-out: IC50) is 2.34 µM; in data set [2] (read-out: pIC50 (converted)) it was 2.29 µM.

Regarding `COc1ccc(S(=O)(=O)N2CCN(c3ccc(N4CCCC[C@@H]4C)nn3)CC2)cc1OC`, the Activity in data set [1] was 46%. For the same compound, the PPB result in the data set with Plasma [3] and with Plasma [4] was “Active” each time. The IC50 is 2.8 µM in data set [2] (read-out: IC50) and 2.63 µM in data set [2] (read-out: pIC50 (converted)).

Consider `C[C@@H]1CCCCN1c1ccc(N2CCN(S(=O)(=O)c3ccccc3Cl)CC2)nn1`, for which, in data set [1], the Activity stood at 12%. Also, the IC50 in data set [2] (read-out: IC50) was 6.08 µM; in data set [2] (read-out: pIC50 (converted)), 5.75 µM.

As for `O=C1CCCCN1c1ccc(N2CCN(S(=O)(=O)c3ccccc3Cl)CC2)nn1`, in data set [1], the Activity came out at 51%. Moreover, in data set [2] (read-out: IC50), the IC50 is greater than 10 µM.

Consider `C[C@H]1CCCCN1c1ccc(N2CCN(S(=O)(=O)c3ccc4ncccc4c3)CC2)nn1`, for which the Activity in data set [1] was determined as 7%. Moreover, the PPB entry with Plasma [3] and with Plasma [4] was “Active” throughout. Also, the figures for the IC50 in data set [2] (read-out: IC50) and in data set [2] (read-out: pIC50 (converted)) were 1.17 µM and 1.12 µM, respectively.

Turning to `CC1CCCCN1c1ccc(N2CCN(S(=O)(=O)c3ccccc3Cl)CC2)nn1` (racemic), the Activity in data set [1] was found to be 9.2%. Also, the IC50 was 1 µM in data set [5] and 0.53 µM in data set [2] (read-out: IC50).

With `Cc1noc(C)c1S(=O)(=O)N1CCN(c2ccc(N3CCOC[C@@H]3C)nn2)CC1`, the Activity in data set [1] came to 66%. In data set [2] (read-out: IC50), the IC50 was greater than 10 µM.

As to `C[C@H]1CCCCN1c1ccc(N2CCN(S(=O)(=O)c3nccn3C)CC2)nn1`, the Activity in data set [1] was 8%. The PPB entry in the data set on Plasma [3] and in the data set on Plasma [4] was “Active” in each case. In data set [2] (read-out: IC50), the IC50 was 1.6 µM.

In the case of `C[C@H]1CCCCN1c1ccc(N2CCN(S(=O)(=O)C3CCCCC3)CC2)nn1`, the Activity in data set [1] stood at 51%. Further, the PPB entry with Plasma [3] and in the data set on Plasma [4] was “Active” in each case. For the same compound, the IC50 in data set [2] (read-out: IC50) is 4.02 µM.

As for `O=S(=O)(c1ccccc1Cl)N1CCN(c2ccc(N3CCCCC3)nn2)CC1`, the Activity in data set [1] stood at 12%. Further, the IC50 in data set [2] (read-out: IC50) is 5.58 µM; in data set [2] (read-out: pIC50 (converted)), 5.37 µM.

Take `O=S(=O)(c1ccccc1Cl)N1CCN(c2ccc(N3CCCCCC3)nn2)CC1`: in data set [1], the Activity turned out to be 6%. Also, the IC50 in data set [2] (read-out: IC50) came to 1.27 µM.

For the compound `Cc1noc(C)c1S(=O)(=O)N1CCN(c2ccc(N3CCCC[C@@H]3C)nn2)CC1`, the Activity in data set [1] was 6%. For the same compound, the PPB entry in the data set with Plasma [3] and with Plasma [4] was “Active” throughout. Further, the IC50 in data set [2] (read-out: IC50) turned out to be 0.09 µM.

Turning to `C[C@H]1CCCCN1c1ccc(N2CCN(S(=O)(=O)c3ccc4c(c3)OCO4)CC2)nc1`, the IC50 in data set [2] (read-out: IC50) turned out to be 1.35 µM.

For the compound `C[C@H]1CCCCN1c1ccc(N2CCN(S(=O)(=O)c3cccc(Cl)c3)CC2)nn1`, in data set [1], the Activity was 22%. For the same compound, the PPB result in the data set on Plasma [3] and in the data set with Plasma [4] was “Active” in each case. Besides, the IC50 is 0.76 µM in data set [2] (read-out: IC50) and 0.708 µM in data set [2] (read-out: pIC50 (converted)).

With `O=S(=O)(c1ccc2c(c1)OCO2)N1CCN(c2ccc(N3CCCCCC3)nn2)CC1`, the Activity in data set [1] amounted to 20%. For the same compound, in data set [2] (read-out: IC50), the IC50 came to 0.29 µM.

`CC1(C)CCCN(c2ccc(N3CCN(S(=O)(=O)c4ccccc4Cl)CC3)nn2)C1`: the Activity in data set [1] amounted to 5%. Besides, the IC50 in data set [2] (read-out: IC50) worked out at 0.94 µM.

For the compound `O=S(=O)(c1ccc2c(c1)OCO2)N1CCN(c2ccc(N3CCCCC3)nn2)CC1`, the Activity in data set [1] came to 55%. For the same compound, the IC50 in data set [2] (read-out: IC50) is 0.73 µM; in data set [2] (read-out: pIC50 (converted)) it was 0.661 µM.

For `C[C@H]1COCCN1c1ccc(N2CCN(S(=O)(=O)c3ccc4c(c3)OCO4)CC2)nn1`, the Activity in data set [1] is 63%. The IC50 in data set [2] (read-out: IC50) is greater than 10 µM.

As to `CC1(C)CCCN(c2ccc(N3CCN(S(=O)(=O)c4ccc5c(c4)OCO5)CC3)nn2)C1`, the Activity in data set [1] was determined as 14%. In addition, the IC50 is 0.47 µM in data set [2] (read-out: IC50) and 0.457 µM in data set [2] (read-out: pIC50 (converted)).

For the compound `C[C@H]1CCCCN1c1ccc(N2CCN(S(=O)(=O)c3ccccc3C(F)(F)F)CC2)nn1`, the Activity in data set [1] is 4%. The PPB result in the data set with Plasma [3] and in the data set with Plasma [4] was “Active” throughout. For the same compound, the IC50 in data set [2] (read-out: IC50) came out at 0.52 µM.

Take `C[C@H]1CCCCN1c1ccc(N2CCN(S(=O)(=O)c3ccc4c(c3)OCO4)CC2)nn1`: in data set [1], the Activity is 9%. For the same compound, the PPB entry in the data set on Plasma [3] and in the data set on Plasma [4] was “Active” each time. The IC50 in data set [2] (read-out: IC50) stood at 0.2 µM.

Turning to `C[C@H]1CCCCN1c1ccc(N2CCN(S(=O)(=O)c3ccc4c(c3)OCO4)CC2)cn1`, the IC50 in data set [2] (read-out: IC50) was greater than 10 µM.

Turning to `COc1ccccc1S(=O)(=O)N1CCN(c2ccc(N3CCCC[C@@H]3C)nn2)CC1`, the Activity in data set [1] came out at 11%. Also, the PPB result with Plasma [3] and in the data set on Plasma [4] was “Active” throughout. In addition, the IC50 in data set [2] (read-out: IC50) worked out at 2.38 µM.

For the compound `Cc1noc(C)c1S(=O)(=O)N1CCN(c2ccc(N3CCC[C@@H]3C)nn2)CC1`, the Activity in data set [1] amounted to 10%. The IC50 in data set [2] (read-out: IC50) amounted to 3.31 µM.

In the case of `C[C@H]1CCCCN1c1ccc(N2CCN(S(=O)(=O)c3ccc4c(c3)OCO4)CC2)cc1`, in data set [2] (read-out: IC50), the IC50 is 1.33 µM.

Take `C[C@H]1COCCN1c1ccc(N2CCN(S(=O)(=O)c3ccccc3Cl)CC2)nn1`: the Activity in data set [1] amounted to 56%. The IC50 in data set [2] (read-out: IC50) was greater than 10 µM.

On to `Cc1noc(C)c1S(=O)(=O)N1CCN(c2ccc(N3CCCCCC3)nn2)CC1`, for which the Activity in data set [1] was found to be 8%. The figures for the IC50 in data set [2] (read-out: IC50) and in data set [2] (read-out: pIC50 (converted)) were 0.43 µM and 0.407 µM, respectively.

In the case of `C[C@H]1CCCCN1c1cnc(N2CCN(S(=O)(=O)c3ccc4c(c3)OCO4)CC2)cn1`, the IC50 in data set [2] (read-out: IC50) is greater than 10 µM.

Regarding `C[C@H]1CCCCN1c1ccc(N2CCN(S(=O)(=O)c3ccccc3)CC2)nn1`, the Activity in data set [1] turned out to be 8%. For the same compound, the PPB entry in the data set on Plasma [3] and in the data set on Plasma [4] was “Active” each time. In data set [2] (read-out: IC50), the IC50 was determined as 2.57 µM.

Regarding `C[C@H]1CCCN1c1ccc(N2CCN(S(=O)(=O)c3ccc4c(c3)OCO4)CC2)nn1`, the Activity in data set [1] is 14%. For the same compound, the results for the IC50 in data set [2] (read-out: IC50) and in data set [2] (read-out: pIC50 (converted)) were 2.73 µM and 2.57 µM, respectively.

Values taken from ChEMBL document CHEMBL4052689, “Discovery and optimization of 3-(4-aryl/heteroarylsulfonyl)piperazin-1-yl)-6-(piperidin-1-yl)pyridazines as novel, CNS penetrant pan-muscarinic antagonists” (Bioorg Med Chem Lett, 2017).
